Where two headings read alike, the source gives them in different places.
Legend:
[1] = molecular target: human HSP90 alpha protein (HSP90 N-terminal protein, amino acids 2-236) (Homo sapiens (Human), UniProt P07900); test: Measurement of HSP90-binding activity (AlphaScreen competitive assay, biotin-labeled geldanamycin); conditions: read-out: HSP-binding activity IC50
[2] = test system: SK-BR-3 cells; test: Measurement of cell growth inhibition (crystal violet staining method); format: cell-based; conditions: Homo sapiens
[3] = concentration inhibiting binding of biotin-labeled geldanamycin (40 nM) to purified HSP90 to 50% of control
[4] = breast cancer SK-BR-3 cells, 72 hr culture with test substance

In the case of `Cn1cc(-c2cn(-c3ccnc4c3c(C(F)(F)F)nn4-c3ccc(C(N)=O)cc3N)cn2)cn1` [Example 158, 3-Amino-4-{4-(4-(1-methyl-1H-pyrazol-4-yl)-1H-imidazol-1-yl)-3-(trifluoromethyl)-1H-pyrazolo[3,4-b]pyridin-1-yl}benzamide], the IC50 [1, 3] is reported as 0.1 µM and the IC50 [2, 4] is reported as 0.2 µM.

With `Cn1cc(-c2cn(-c3ccnc4c3c(C(F)(F)F)nn4-c3ccc(C(N)=O)cc3C3CC3)cn2)cn1` [Example 173, 3-(Cyclopropyl)-4-{4-(4-(1-methyl-1H-pyrazol-4-yl)-1H-imidazol-1-yl)-3-(trifluoromethyl)-1H-pyrazolo[3,4-b]pyridin-1-yl}benzamide] the IC50 [1, 3] was 0.12 µM and the IC50 [2, 4] was 0.08 µM.

`COc1cncc(-c2ccnc3c2c(C(C)C)nn3-c2ccc(C(N)=O)c(N[C@H]3CC[C@H](O)CC3)c2)c1` [Example 11, 2-(Trans-4-hydroxycyclohexylamino)-4-{3-isopropyl-4-(5-methoxypyridin-3-yl)-1H-pyrazolo[3,4-b]pyridin-1-yl}benzamide] was tested, and the IC50 [1, 3] was 0.55 µM and the IC50 [2, 4] was 0.16 µM.

`CC(C)c1nn(-c2ccc(C(N)=O)c(NCc3ccccc3)c2)c2nccc(-c3cnc4ccccc4c3)c12` [Example 20, 2-(Benzylamino)-4-{3-isopropyl-4-(quinolin-3-yl)-1H-pyrazolo[3,4-b]pyridin-1-yl}benzamide] gave an IC50 [1, 3] of 3.05 µM and an IC50 [2, 4] of 0.67 µM.

Work on `CC(C)NC(=O)c1ccc(-c2cn(-c3ccnc4c3c(C(C)C)nn4-c3ccc(C(N)=O)cc3Cl)cn2)cc1` [Example 150, 4-{1-(1-(4-Carbamoyl-2-chlorophenyl)-3-isopropyl-1H-pyrazolo[3,4-b]pyridin-4-yl)-1H-imidazol-4-yl}-N-isopropylbenzamide] yielded an IC50 [1, 3] of 0.93 µM and an IC50 [2, 4] of 1.33 µM.

`CC(C)c1nn(-c2ccc(C(N)=O)cc2Cl)c2nccc(-n3cnc(-c4ccc(C(N)=O)cc4)c3)c12` [Example 152, 4-{4-(4-(4-Carbamoylphenyl)-1H-imidazol-1-yl)-3-isopropyl-1H-pyrazolo[3,4-b]pyridin-1-yl}-3-chlorobenzamide] gave an IC50 [1, 3] of 1.01 µM and an IC50 [2, 4] of 1.28 µM.

`CCCc1cc(C(N)=O)ccc1-n1nc(C(C)C)c2c(-n3cnc(-c4cnn(C)c4)c3)ccnc21` [Example 103, 4-{3-Isopropyl-4-(4-(1-methyl-1H-pyrazol-4-yl)-1H-imidazol-1-yl)-1H-pyrazolo[3,4-b]pyridin-1-yl}-3-propylbenzamide] showed an IC50 [1, 3] of 0.12 µM and an IC50 [2, 4] of 0.17 µM.

`CC(C)c1nn(-c2ccc(C(N)=O)c(NC3CCC(O)CC3)c2)c2nccc(-n3cnc(-c4cn[nH]c4)c3)c12` (stereo not shown) [Example 95, 4-{4-(4-(1H-Pyrazol-4-yl)-1H-imidazol-1-yl)-3-isopropyl-1H-pyrazolo[3,4-b]pyridin-1-yl}-2-(4-hydroxycyclohexylamino)benzamide] showed an IC50 [1, 3] of 0.06 µM and an IC50 [2, 4] of 0.02 µM.

Compound `CCc1c(-n2nc(C(C)C)c3c(-n4cnc(-c5cnn(C)c5)c4)ccnc32)ccc(C(N)=O)c1F` [Example 131, 3-Ethyl-2-fluoro-4-{3-isopropyl-4-(4-(1-methyl-1H-pyrazol-4-yl)-1H-imidazol-1-yl)-1H-pyrazolo[3,4-b]pyridin-1-yl}benzamide] has an IC50 [1, 3] of 0.7 µM and an IC50 [2, 4] of 0.92 µM.

In the case of `CCNc1c(C(N)=O)ccc(-n2nc(C(C)C)c3c(-n4cnc(-c5cnn(C)c5)c4)ccnc32)c1CC` [Example 133, 3-Ethyl-2-(ethylamino)-4-{3-isopropyl-4-(4-(1-methyl-1H-pyrazol-4-yl)-1H-imidazol-1-yl)-1H-pyrazolo[3,4-b]pyridin-1-yl}benzamide], the IC50 [1, 3] is reported as 0.16 µM and the IC50 [2, 4] is reported as 0.15 µM.

`Cc1c(-n2nc(C(C)C)c3c(-n4cnc(-c5cnn(C)c5)c4)ccnc32)ccc(C(N)=O)c1F` [Example 130, 2-Fluoro-4-{3-isopropyl-4-(4-(1-methyl-1H-pyrazol-4-yl)-1H-imidazol-1-yl)-1H-pyrazolo[3,4-b]pyridin-1-yl}-3-methylbenzamide] was tested, and the IC50 [1, 3] was 0.69 µM and the IC50 [2, 4] was 1.89 µM.

For `CC(C)c1nn(-c2ccc(C(N)=O)c(N[C@H]3CC[C@H](O)CC3)c2)c2nccc(-c3cnc4[nH]ccc4c3)c12` [Example 13, 2-(Trans-4-hydroxycyclohexylamino)-4-{3-isopropyl-4-(1H-pyrrolo[2,3-b]pyridin-5-yl)-1H-pyrazolo[3,4-b]pyridin-1-yl}benzamide], the IC50 [1, 3] was 0.43 µM and the IC50 [2, 4] was 0.15 µM.

`CC(C)c1nn(-c2ccc(C(N)=O)c(N[C@H]3CC[C@H](O)CC3)c2)c2nccc(-n3ccnc3)c12` [Example 36, 4-{4-(1H-Imidazol-1-yl)-3-isopropyl-1H-pyrazolo[3,4-b]pyridin-1-yl}-2-(trans-4-hydroxycyclohexylamino)benzamide] was tested, and the IC50 [1, 3] was 1.88 µM and the IC50 [2, 4] was 3.21 µM.

With `CCNc1cc(-n2nc(C(C)C)c3c(-n4cnc(-c5cnn(CC)c5)c4)ccnc32)ccc1C(N)=O` [Example 146, 4-{4-(4-(1-Ethyl-1H-pyrazol-4-yl)-1H-imidazol-1-yl)-3-isopropyl-1H-pyrazolo[3,4-b]pyridin-1-yl}-2-(ethylamino)benzamide] the IC50 [1, 3] was 0.77 µM and the IC50 [2, 4] was 0.21 µM.

`Cc1cc(C(N)=O)ccc1-n1nc(C(F)(F)F)c2c(-c3cnc4ccccc4c3)ccnc21` [Example 82, 3-Methyl-4-{4-(quinolin-3-yl)-3-(trifluoromethyl)-1H-pyrazolo[3,4-b]pyridin-1-yl}benzamide] was tested, and the IC50 [1, 3] was 0.83 µM and the IC50 [2, 4] was 0.23 µM.

For `Cc1cc(C(N)=O)ncc1-n1nc(C(C)C)c2c(-n3cnc(-c4cnn(C)c4)c3)ccnc21` [Example 118, 5-{3-Isopropyl-4-(4-(1-methyl-1H-pyrazol-4-yl)-1H-imidazol-1-yl)-1H-pyrazolo[3,4-b]pyridin-1-yl}-4-methylpicolinamide], the IC50 [1, 3] was 0.21 µM and the IC50 [2, 4] was 0.55 µM.

`NC(=O)c1ccc(-n2cc(C(F)(F)F)c3c(-c4cnc5ccccc5c4)ccnc32)cc1N[C@H]1CC[C@H](O)CC1` [Example 43, 2-(Trans-4-hydroxycyclohexylamino)-4-{4-(quinolin-3-yl)-3-(trifluoromethyl)-1H-pyrrolo[2,3-b]pyridin-1-yl}benzamide] gave an IC50 [1, 3] of 0.1 µM and an IC50 [2, 4] of 0.01 µM.

`Cn1cc(-c2cn(-c3ccnc4c3c(C(F)(F)F)nn4-c3ccc(C(N)=O)cc3Br)cn2)cn1` [Example 170, 3-Bromo-4-{4-(4-(1-methyl-1H-pyrazol-4-yl)-1H-imidazol-1-yl)-3-(trifluoromethyl)-1H-pyrazolo[3,4-b]pyridin-1-yl}benzamide] was tested, and the IC50 [1, 3] was 0.21 µM and the IC50 [2, 4] was 0.37 µM.

In the case of `Cc1cc(C(N)=O)ccc1-n1nc(C(C)C)c2c(-n3cnc(-c4cccnc4)c3)ccnc21` [Example 135, 4-{3-Isopropyl-4-(4-(pyridin-3-yl)-1H-imidazol-1-yl)-1H-pyrazolo[3,4-b]pyridin-1-yl}-3-methylbenzamide], the IC50 [1, 3] is reported as 0.4 µM and the IC50 [2, 4] is reported as 0.69 µM.

`NC(=O)c1ccc(-n2nc(C(F)(F)F)c3c(-n4cnc(-c5cccnc5)c4)ccnc32)c(N)c1` [Example 177, 3-Amino-4-{4-(4-(pyridin-3-yl)-1H-imidazol-1-yl)-3-(trifluoromethyl)-1H-pyrazolo[3,4-b]pyridin-1-yl}benzamide] gave an IC50 [1, 3] of 0.27 µM and an IC50 [2, 4] of 0.39 µM.

`CC(C)c1nn(-c2ccc(C(N)=O)c(Nc3ccc(N4CCOCC4)cc3)c2)c2nccc(-c3cnc4ccccc4c3)c12` [Example 33, 4-{3-Isopropyl-4-(quinolin-3-yl)-1H-pyrazolo[3,4-b]pyridin-1-yl}-2-(4-morpholinophenylamino)benzamide] was tested, and the IC50 [1, 3] was 1.14 µM and the IC50 [2, 4] was 0.07 µM.

Work on `CC(C)c1nn(-c2ccc(C(N)=O)c(N[C@H]3CC[C@H](O)CC3)c2)c2ccnc(-c3cnc4ccccc4c3)c12` [Example 4, 2-(Trans-4-hydroxycyclohexylamino)-4-{3-isopropyl-4-(quinolin-3-yl)-1H-pyrazolo[4,3-c]pyridin-1-yl}benzamide] yielded an IC50 [1] of 1.6 µM and an IC50 ([2]; SK-BR-3, 72 h) of 0.82 µM.

`Cn1cc(-c2cn(-c3ccnc4c3c(C(F)(F)F)nn4-c3ccc(C(N)=O)cc3F)cn2)cn1` [Example 171, 3-Fluoro-4-{4-(4-(1-methyl-1H-pyrazol-4-yl)-1H-imidazol-1-yl)-3-(trifluoromethyl)-1H-pyrazolo[3,4-b]pyridin-1-yl}benzamide] gave an IC50 [1, 3] of 0.1 µM and an IC50 [2, 4] of 0.13 µM.

`COc1cccc2c1ccn2-c1ccc(C(N)=O)c(NC2CCC(O)CC2)c1` (stereo not shown) [Comparative Example 2, reference compound] was tested, and the IC50 [1, 3] was > 100 µM and the IC50 [2, 4] was > 10 µM.

`CC(C)c1nn(-c2ccc(C(N)=O)c(NCCN3CCOCC3)c2)c2nccc(-c3cnc4ccccc4c3)c12` [Example 31, 4-{3-Isopropyl-4-(quinolin-3-yl)-1H-pyrazolo[3,4-b]pyridin-1-yl}-2-(2-morpholinoethylamino)benzamide] was tested, and the IC50 [1, 3] was 0.33 µM and the IC50 [2, 4] was 0.1 µM.

In the case of `Cn1cc(-c2cn(-c3ccnc4c3c(C(F)(F)F)nn4-c3ccc(C(N)=O)cc3C#N)cn2)cn1` [Example 169, 3-Cyano-4-{4-(4-(1-methyl-1H-pyrazol-4-yl)-1H-imidazol-1-yl)-3-(trifluoromethyl)-1H-pyrazolo[3,4-b]pyridin-1-yl}benzamide], the IC50 [1, 3] is reported as 0.23 µM and the IC50 [2, 4] is reported as 0.27 µM.

For `CC(C)c1nn(-c2ccc(C(N)=O)c(N[C@H]3CC[C@H](O)CC3)c2)c2nccc(-c3cnc4c(c3)CCCC4)c12` [Example 19, 2-(Trans-4-hydroxycyclohexylamino)-4-{3-isopropyl-4-(5,6,7,8-tetrahydroquinolin-3-yl)-1H-pyrazolo[3,4-b]pyridin-1-yl}benzamide], the IC50 [1, 3] was 1.19 µM and the IC50 [2, 4] was 0.47 µM.

In the case of `Cc1cn(-c2ccc(C(N)=O)c(N[C@H]3CC[C@H](O)CC3)c2)c2nccc(-c3cnc4ccccc4c3)c12` [Example 40, 2-(Trans-4-hydroxycyclohexylamino)-4-{3-methyl-4-(quinolin-3-yl)-1H-pyrrolo[2,3-b]pyridin-1-yl}benzamide], the IC50 [1, 3] is reported as 0.27 µM and the IC50 [2, 4] is reported as 0.09 µM.

For `CCc1cn(-c2ccc(C(N)=O)c(N[C@H]3CC[C@H](N)CC3)c2)c2nccc(-c3cnc4ccccc4c3)c12` [Example 72, 2-(Trans-4-aminocyclohexylamino)-4-{3-ethyl-4-(quinolin-3-yl)-1H-pyrrolo[2,3-b]pyridin-1-yl}benzamide], the IC50 [1, 3] was 0.26 µM and the IC50 [2, 4] was 0.11 µM.

Source: patent US8779142B2, “Azabicyclo compound and salt thereof” (Taiho Pharmaceutical Co., Ltd., priority 2009, dated 2014)
